Here are results for two compounds from patent publication US9464283B2, “Signaling compositions, methods, and systems for effecting plant growth and crop enhancement” (KamTec, LLC, priority 2013, dated 2016).

For one assay, the system named is 'M-202' rice. In words: Rice seed soak 24 hours, tap water irrigation. It counts as in vivo, Oryza sativa L. As to conditions: 5 ppm, 24 hours soak. The protocol: In this preferred embodiment of the present invention, seeds are soaked in prepared bio-regulator solutions for a period of 24 hours. Rice seeds were selected from the same ‘M-202’ type grains as in the previous study. The bio-regulator solutions were prepared using 5 ppm BMPA solution. The solution was drained and seeds planted in starter plastic containers filled with potting soil. After germination and plant growth reaching height of four inches, rice seedlings were transplanted from their greenhouse containers to six-inch diameter plastic containers and placed outdoor. Again, two sets of three pots for the control and test group were used. These studies were also carried out using an increased amount of BMPA. The amount was increased from 1 ppm to 5 ppm, and the results of the study were similar to the results outlined in the paragraph above.

In assay [1] the test system is aphid infestation on cotton Bt plant. In words: Aphid infestation of cotton Bt plants after seed soak. The format is in vivo. As to conditions: 5 ppm BMPA seed soak. The method, then:
In this preferred embodiment of the present invention, seeds were soaked for a period of 3 hours in the bio-regulator solution. Cotton Bt were selected and studied to determine if bio-regulator chemistry will enhance or influence the inserted Bt genes of the transgenic plant. The seeds were separated into two different sets on July 2. The first set, Set 1, was soaked in 5 ppm BMPA solution with 0.05% Kinetic®. The second set, Set 2, was soaked in water with 0.05% v/v Kinetic®. The solution was drained and the treated seeds planted in starter plastic trays. After germination and after the seedlings reached the height of four inches, the cotton Bt plants were transplanted into larger six-inch plastic containers. The cotton plants were placed outdoors for the duration of the study. The different sets of plants were regularly observed throughout this study.

A further assay has as its system Melody variety sunflower. As to the kind of experiment: Sunflower seed soak, field plots. It counts as in vivo. The following applies: per Rep; 3 ppm, three hours seed soak. The source says: In this preferred embodiment of the present invention, sunflower seeds were selected from the Melody variety and were soaked for three hours in solutions containing 0.05% Tween 20 and BMTA or BMPA, at a concentration of 3 ppm. Another group of seeds of the same variety was soaked in a solution with only in 0.05% Tween 20 added (control). Following soaking, seeds were desiccated to storage moisture contents and BMTA, BMPA and control seeds were sown in three twenty-five foot plots (Reps) each on May 21 (plots were arranged in a randomized block design). On September 16, sunflower heads were harvested, with a harvest of around 20 heads per plot/Rep on average. The heads were hand-threshed to collect seeds. Moisture, count, and weight data was collected on seeds from each head.

For assay [2], the system named is 'M-202' medium-grain rice (Oryza sativa L.). As to the kind of experiment: Rice seed soak with NaCl irrigation (salt tolerance). As to conditions: 5 ppm, 1500 ppm NaCl irrigation, planting through completion of study. The format is in vivo. The method, then:
In another preferred embodiment of the present invention, seeds are soaked in prepared bio-regulator solutions for a period of three hours. Rice seeds were selected from ‘M-202’ medium-grain rice (Oryza sativa L.), (Reg. no 72) PI494105 type grains; this selection was meant to represent a typical California rice seed, and was not meant to be limiting. The bio-regulator solutions are prepared using 5 ppm BMTA solution with 0.05% v/v Kinetic® made by Helena Chemical Company. The solution was drained and the seeds planted in starter plastic containers with potting soil. After germination and having grown to 4 inches in height, the plants were transplanted into 6 inch diameter plastic containers. Two sets of three pots each were set up for this study; one set for the test group and one set for the control group. Both the control and test studies were irrigated with 1500 ppm NaCl solution from time of planting until the study was completed. The purpose of the NaCl irrigation was to determine the effect of the bio-regulator treatment in regards to salt tolerances.

Where “and” joins values, the source holds several entries; their conditions need not be identical. Identical values can stand only once. Bounds are passed on as bounds.

For the compound `CN(CCOC(=O)COc1ccccc1)Cc1ccccc1` [BMPA], the “observed growth of rice plant” value with 'M-202' rice is given as “enhanced growth”. Further, the “delay of the infestation of aphids” value in assay [1] is at most 19 days. Besides, the “% Moist” value in the assay on Melody variety sunflower was 13.52% and 13.93% and 12.37%.
Turning to `Cc1ccc(C(=O)OCCN(C)Cc2ccccc2)cc1` [BMTA], in assay [2], the “observed growth of rice plant” value is given as “enhanced growth”. For the same compound, in the assay on Melody variety sunflower, the “% Moist” value is 13.10% and 13.01% and 14.82%.
